We go through eight molecules from ChEMBL document CHEMBL4270496, “How to train your inhibitor: Design strategies to overcome resistance to Epidermal Growth Factor Receptor inhibitors” (Eur J Med Chem, 2017).

For orientation: IC50 means the midpoint of a concentration-inhibition curve. A high value points to lower potency. For orientation: GI50 means the concentration at which growth is held to half of that of the control. Lower therefore signals more potent growth inhibition.

In series [1] the test system is NCI-H1975. Description: Antiproliferative activity against human NCI-H1975 cells expressing EGFR T790M/L858R mutant incubated for 72 hrs by MTS assay. In kind it is functional, cell-based. Particulars: NCI-H1975, 72 h. (Formazan colour is commonly taken as a measure of viable cells.)
The next series concerns BT-474. Put plainly: Antiproliferative activity against human BT474 cells expressing wild type HER2 incubated for 72 hrs by MTS assay. The format is functional, cell-based. As to conditions: BT-474, 72 h.
For a further series, the system named is A549. Put plainly: Antiproliferative activity against human A549 cells. In kind it is functional, cell-based.
The test system of series [2] is A-431. Description: Antiproliferative activity against human A431 cells expressing wild type EGFR incubated for 72 hrs by MTS assay. As to conditions: A-431, 72 h. In kind it is functional, cell-based.
The subject of series [3] is MCF7. Put plainly: Antiproliferative activity against human MCF7 cells expressing wild type HER2 incubated for 72 hrs by MTS assay. As to conditions: MCF7, 72 h. In kind it is functional, cell-based.
The target in series [4] is T1, Epidermal growth factor receptor (Homo sapiens, UniProt P00533). Put plainly: Inhibition of EGFR (unknown origin).
The subject of series [5] is A-431. Description: Antiproliferative activity against human A431 cells expressing wild type EGFR. The format is functional, cell-based.
Series [6] concerns the target T2, Receptor tyrosine-protein kinase erbB-2 (Homo sapiens, UniProt P04626). Put plainly: Inhibition of HER2 (unknown origin).
The subject of series [7] is MCF7. Description: Antiproliferative activity against human MCF7 cells expressing wild type HER2. The format is functional, cell-based.
Series [8] addresses Epidermal growth factor receptor (Homo sapiens, UniProt P00533, T790M/L858R). Description: Inhibition of EGFR T790M/L858R mutant (unknown origin).
The subject of series [9] is NCI-H1975. Put plainly: Antiproliferative activity against human NCI-H1975 cells expressing EGFR T790M/L858R mutant. In kind it is functional, cell-based.
The subject of another series is NCI-N87. Description: Antiproliferative activity against human NCI-N87 cells expressing wild type EGFR and HER2 incubated for 72 hrs by MTS assay. In kind it is functional, cell-based. Particulars: NCI-N87, 72 h.
Series [10] deals with T2, Receptor tyrosine-protein kinase erbB-2. Put plainly: Inhibition of GST-tagged human HER2 catalytic domain expressed in insect cells.
In series [11] the target is Epidermal growth factor receptor (Homo sapiens, UniProt P00533, L858R/T790M). Put plainly: Inhibition of human EGFR T790M/L858R mutant expressed in mouse Ba/F3 cells. The format is cell-based.
Series [12] has as its target Epidermal growth factor receptor (Homo sapiens, UniProt P00533, L858R). Description: Inhibition of human EGFR L858R mutant expressed in mouse Ba/F3 cells. The format is cell-based.
Series [13] deals with Epidermal growth factor receptor (Homo sapiens, UniProt P00533, T790M). Description: Inhibition of human EGFR T790M mutant expressed in mouse Ba/F3 cells. The format is cell-based.
The target of series [14] is T1, Epidermal growth factor receptor. Description: Inhibition of GST-tagged human EGFR catalytic domain expressed in insect cells.
A short description of series [15]: Antiproliferative activity against human NCI-H1819 cells expressing wild type HER2 incubated for 72 hrs by MTS assay. In kind it is functional, cell-based. Particulars: NCI-H1819, 72 h.
Series [16] in a line: Antiproliferative activity against human HS27 cells expressing wild type HER2 incubated for 72 hrs by MTS assay. The format is cell-based.
The next series relates to SK-BR-3. Description: Antiproliferative activity against human SKBR3 cells expressing wild type HER2 incubated for 72 hrs by MTS assay. The format is functional, cell-based. As to conditions: SK-BR-3, 72 h.

T2 sequence (P04626 whole entry): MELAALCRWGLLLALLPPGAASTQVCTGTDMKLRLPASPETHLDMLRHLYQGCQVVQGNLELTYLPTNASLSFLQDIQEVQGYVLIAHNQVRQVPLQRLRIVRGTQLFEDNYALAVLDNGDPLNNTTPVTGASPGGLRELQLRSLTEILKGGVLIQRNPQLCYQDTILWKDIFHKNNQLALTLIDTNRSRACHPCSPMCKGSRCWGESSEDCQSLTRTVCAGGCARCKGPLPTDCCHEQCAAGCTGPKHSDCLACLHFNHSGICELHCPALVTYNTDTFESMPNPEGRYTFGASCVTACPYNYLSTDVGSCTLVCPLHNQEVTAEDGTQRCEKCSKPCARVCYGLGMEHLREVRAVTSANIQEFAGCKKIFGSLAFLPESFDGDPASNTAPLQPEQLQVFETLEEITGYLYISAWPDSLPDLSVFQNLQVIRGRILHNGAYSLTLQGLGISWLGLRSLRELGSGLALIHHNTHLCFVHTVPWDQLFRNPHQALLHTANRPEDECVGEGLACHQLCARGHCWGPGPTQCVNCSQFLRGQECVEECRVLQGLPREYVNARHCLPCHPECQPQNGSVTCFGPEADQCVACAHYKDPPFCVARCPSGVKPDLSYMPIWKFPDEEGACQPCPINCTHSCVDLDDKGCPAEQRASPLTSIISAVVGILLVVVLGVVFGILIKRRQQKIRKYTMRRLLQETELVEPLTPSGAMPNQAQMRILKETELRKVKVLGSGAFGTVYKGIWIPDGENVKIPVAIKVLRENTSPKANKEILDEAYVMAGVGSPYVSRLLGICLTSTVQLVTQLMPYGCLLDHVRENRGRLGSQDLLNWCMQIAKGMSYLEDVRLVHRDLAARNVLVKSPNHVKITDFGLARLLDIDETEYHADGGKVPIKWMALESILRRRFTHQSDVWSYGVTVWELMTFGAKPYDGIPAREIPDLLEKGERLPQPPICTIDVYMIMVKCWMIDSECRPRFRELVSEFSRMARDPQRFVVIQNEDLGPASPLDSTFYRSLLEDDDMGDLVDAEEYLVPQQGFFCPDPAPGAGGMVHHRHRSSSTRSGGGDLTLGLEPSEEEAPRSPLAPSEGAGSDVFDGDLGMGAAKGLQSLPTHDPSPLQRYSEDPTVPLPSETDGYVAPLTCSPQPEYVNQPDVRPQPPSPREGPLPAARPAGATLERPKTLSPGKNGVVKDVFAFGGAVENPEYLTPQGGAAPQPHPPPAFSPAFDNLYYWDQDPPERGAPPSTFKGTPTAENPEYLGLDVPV
T1 sequence (P00533 whole entry): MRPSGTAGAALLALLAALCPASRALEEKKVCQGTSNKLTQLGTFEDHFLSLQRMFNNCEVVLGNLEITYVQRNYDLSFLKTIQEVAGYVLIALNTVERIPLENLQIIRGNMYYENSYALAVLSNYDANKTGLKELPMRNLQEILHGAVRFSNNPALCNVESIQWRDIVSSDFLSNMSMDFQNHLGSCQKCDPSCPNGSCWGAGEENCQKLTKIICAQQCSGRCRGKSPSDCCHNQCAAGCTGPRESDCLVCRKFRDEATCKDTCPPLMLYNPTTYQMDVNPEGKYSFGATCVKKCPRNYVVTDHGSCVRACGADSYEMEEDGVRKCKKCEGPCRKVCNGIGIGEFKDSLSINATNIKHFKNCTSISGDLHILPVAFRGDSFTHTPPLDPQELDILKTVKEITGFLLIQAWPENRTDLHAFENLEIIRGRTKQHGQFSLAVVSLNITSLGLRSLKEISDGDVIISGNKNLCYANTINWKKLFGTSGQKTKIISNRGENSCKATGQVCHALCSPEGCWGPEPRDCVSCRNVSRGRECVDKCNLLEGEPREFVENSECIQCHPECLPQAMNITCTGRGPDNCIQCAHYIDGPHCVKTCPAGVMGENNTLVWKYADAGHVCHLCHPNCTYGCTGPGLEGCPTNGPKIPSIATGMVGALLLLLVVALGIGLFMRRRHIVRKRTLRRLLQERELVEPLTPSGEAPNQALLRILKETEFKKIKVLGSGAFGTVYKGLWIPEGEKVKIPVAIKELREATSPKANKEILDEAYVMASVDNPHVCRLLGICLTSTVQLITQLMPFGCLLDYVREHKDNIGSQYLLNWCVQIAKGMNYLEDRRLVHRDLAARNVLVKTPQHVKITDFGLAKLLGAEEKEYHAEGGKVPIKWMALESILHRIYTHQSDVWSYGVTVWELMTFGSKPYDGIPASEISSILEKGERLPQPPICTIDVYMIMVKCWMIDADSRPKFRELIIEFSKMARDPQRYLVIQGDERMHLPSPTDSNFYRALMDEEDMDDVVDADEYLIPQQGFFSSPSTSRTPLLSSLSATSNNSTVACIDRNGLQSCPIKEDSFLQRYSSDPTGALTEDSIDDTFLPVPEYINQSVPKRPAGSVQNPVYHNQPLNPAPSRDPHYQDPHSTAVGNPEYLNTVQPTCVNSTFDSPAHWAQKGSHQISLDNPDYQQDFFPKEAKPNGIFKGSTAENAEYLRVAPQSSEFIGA
Epidermal growth factor receptor (Homo sapiens, UniProt P00533, L858R), sequence (P00533 25-1210 L858R limits assumed): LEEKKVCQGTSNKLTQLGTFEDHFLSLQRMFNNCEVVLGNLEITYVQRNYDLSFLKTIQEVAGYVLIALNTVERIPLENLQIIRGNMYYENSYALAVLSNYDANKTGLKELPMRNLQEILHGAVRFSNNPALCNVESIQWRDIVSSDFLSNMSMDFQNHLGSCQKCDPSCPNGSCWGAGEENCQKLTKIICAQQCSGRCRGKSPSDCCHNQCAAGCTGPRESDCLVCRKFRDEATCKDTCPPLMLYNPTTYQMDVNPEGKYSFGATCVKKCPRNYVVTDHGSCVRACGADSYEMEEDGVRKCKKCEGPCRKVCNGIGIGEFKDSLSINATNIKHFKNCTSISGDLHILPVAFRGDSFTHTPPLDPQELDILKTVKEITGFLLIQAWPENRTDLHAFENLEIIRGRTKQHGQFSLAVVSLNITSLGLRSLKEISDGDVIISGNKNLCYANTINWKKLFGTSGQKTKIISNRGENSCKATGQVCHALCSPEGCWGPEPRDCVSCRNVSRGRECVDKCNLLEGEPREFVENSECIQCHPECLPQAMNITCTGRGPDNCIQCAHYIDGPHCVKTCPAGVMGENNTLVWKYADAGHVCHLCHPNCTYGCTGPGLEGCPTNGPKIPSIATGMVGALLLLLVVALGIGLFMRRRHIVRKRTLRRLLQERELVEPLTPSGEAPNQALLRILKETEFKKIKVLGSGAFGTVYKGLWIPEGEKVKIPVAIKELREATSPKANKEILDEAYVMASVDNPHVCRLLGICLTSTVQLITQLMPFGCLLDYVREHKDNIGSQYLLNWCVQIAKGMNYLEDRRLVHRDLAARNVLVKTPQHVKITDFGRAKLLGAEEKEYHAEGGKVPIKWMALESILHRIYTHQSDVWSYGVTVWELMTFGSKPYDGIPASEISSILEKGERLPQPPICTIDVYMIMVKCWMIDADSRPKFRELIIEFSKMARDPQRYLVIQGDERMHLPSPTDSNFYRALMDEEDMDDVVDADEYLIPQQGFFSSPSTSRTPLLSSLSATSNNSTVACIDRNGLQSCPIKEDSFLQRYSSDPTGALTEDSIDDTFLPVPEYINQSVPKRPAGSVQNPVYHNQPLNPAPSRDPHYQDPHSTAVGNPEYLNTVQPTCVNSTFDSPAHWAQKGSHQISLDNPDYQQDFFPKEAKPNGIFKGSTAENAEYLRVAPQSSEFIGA
Epidermal growth factor receptor (Homo sapiens, UniProt P00533, T790M), sequence (P00533 25-1210 T790M limits assumed): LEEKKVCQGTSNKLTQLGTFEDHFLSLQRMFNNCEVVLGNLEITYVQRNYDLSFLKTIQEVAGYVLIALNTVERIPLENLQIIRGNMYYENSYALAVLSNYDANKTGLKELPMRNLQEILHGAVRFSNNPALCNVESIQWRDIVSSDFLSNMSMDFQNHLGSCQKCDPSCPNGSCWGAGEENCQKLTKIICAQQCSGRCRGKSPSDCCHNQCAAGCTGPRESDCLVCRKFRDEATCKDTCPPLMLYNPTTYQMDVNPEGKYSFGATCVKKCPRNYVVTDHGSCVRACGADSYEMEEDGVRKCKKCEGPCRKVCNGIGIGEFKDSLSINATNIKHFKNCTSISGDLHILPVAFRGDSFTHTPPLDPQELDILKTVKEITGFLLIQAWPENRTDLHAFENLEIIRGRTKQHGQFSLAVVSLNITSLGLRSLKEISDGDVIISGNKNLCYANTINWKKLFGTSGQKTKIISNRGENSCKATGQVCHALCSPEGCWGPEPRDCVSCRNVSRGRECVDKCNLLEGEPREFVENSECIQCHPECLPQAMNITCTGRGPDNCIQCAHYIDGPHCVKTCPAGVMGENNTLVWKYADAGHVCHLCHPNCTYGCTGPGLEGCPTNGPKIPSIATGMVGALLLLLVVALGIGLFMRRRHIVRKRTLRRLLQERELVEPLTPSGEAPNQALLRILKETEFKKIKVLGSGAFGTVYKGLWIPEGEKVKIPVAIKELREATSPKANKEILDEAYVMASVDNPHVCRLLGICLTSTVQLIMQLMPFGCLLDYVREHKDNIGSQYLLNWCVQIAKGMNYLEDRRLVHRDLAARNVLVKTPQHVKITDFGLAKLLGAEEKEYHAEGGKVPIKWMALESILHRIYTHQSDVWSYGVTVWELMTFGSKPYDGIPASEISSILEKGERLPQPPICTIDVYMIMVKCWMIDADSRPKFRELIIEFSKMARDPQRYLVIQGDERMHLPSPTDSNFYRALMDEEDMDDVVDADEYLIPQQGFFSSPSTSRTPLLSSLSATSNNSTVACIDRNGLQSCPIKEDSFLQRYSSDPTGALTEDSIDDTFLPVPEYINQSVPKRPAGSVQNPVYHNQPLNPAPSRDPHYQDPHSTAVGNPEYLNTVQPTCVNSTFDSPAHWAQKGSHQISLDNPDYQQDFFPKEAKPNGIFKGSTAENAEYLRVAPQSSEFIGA

Regarding `CN(C)C/C=C/C(=O)Nc1cc2c(Nc3ccc(F)c(Cl)c3)ncnc2cc1O[C@@H]1CCOC1`, the 50% inhibitory concentration (IC50) in the series with NCI-H1975 [1] is 92 nM; in the series on BT-474, 54 nM.

For the molecule `O=C(Nc1ccc2ncnc(Nc3cccc(Br)c3)c2c1)c1ccc(C(F)(F)F)cc1O`, the values for the half-inhibitory concentration (IC50) in the series on A549, with A-431 [2] and in the series on MCF7 [3] were 1640 nM, 670 nM and 490 nM, respectively.

Turning to `CC(C)(O)CC(=O)NCCc1ccc2ncnc(Nc3ccc(Oc4cccc(C(F)(F)F)c4)c(Cl)c3)c2c1`, the half-inhibitory concentration (IC50) in series [4] was determined as 9.8 nM; with A-431 [5], 41 nM; in [6] it was 19 nM; with MCF7 [7] it was 94 nM; in series [8], 33 nM; in the series on NCI-H1975 [9], 127 nM.

Take `CCOc1cc2ncnc(Nc3ccc(OCc4cccc(F)c4)c(Cl)c3)c2cc1NC(=O)/C=C/[C@@H]1CCCN1`: the IC50 in the series with A-431 [2] was found to be 62 nM; in the series on NCI-N87 it was 47 nM; in the series with NCI-H1975 [1], 34 nM.

Take `C=CC(=O)Nc1cc2c(Nc3ccc(F)c(Cl)c3)ncnc2cc1C#CC(C)(C)N1CCN(C)CC1` [AV-412 FREE BASE]: the IC50 in the series with A-431 [2] was found to be 100 nM; in series [10] it was 19 nM; in series [11] it was 2.3 nM; in series [12] it was 0.51 nM; in series [13] it was 0.79 nM; in [14], 1.4 nM.

For `C=CC(=O)Nc1cc2c(Nc3ccc(F)c(Cl)c3)ncnc2cc1OCCCN1CCOCC1` [CANERTINIB], half-maximal inhibition in the series with NCI-H1975 [1] (IC50) required 101 nM.

For the molecule `COc1cc2ncnc(Nc3ccc(F)c(Cl)c3)c2cc1NC(=O)/C=C/CN1CCCCC1` [DACOMITINIB ANHYDROUS], the IC50 in [15] turned out to be 29 nM; in the series on NCI-H1975 [1] it was 440 nM.

`C=CC(=O)N1CCC(Oc2cc3c(Nc4ccc(Cl)c(Cl)c4F)ncnc3cc2OC)CC1` [POZIOTINIB]: the IC50 in the series on A-431 [2] came to 0.9 nM; in series [10] it was 5.3 nM; in the series on NCI-H1975 [1] it was 5.7 nM; in the series with SK-BR-3, 1 nM. The molecule further registered a GI50 at 72 h in [16] of 3830 nM.
